This is an account of results in PMC3105312 (Nature Communications, 2011).

For the assay, the target named is PspF1-275 (Escherichia coli, UniProt P37344). The following applies: 10 μM protein, pH 8.0, on ice; labelled compound; comparative control.
PspF1-275, sequence (P37344 1-275): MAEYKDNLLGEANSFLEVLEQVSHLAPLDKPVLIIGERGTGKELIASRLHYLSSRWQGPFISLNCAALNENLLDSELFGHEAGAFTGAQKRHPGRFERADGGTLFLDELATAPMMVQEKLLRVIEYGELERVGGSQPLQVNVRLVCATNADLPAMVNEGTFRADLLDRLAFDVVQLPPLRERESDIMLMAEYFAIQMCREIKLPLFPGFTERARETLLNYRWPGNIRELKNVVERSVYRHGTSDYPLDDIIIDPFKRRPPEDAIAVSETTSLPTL

With `Nc1ncnc2c1ncn2[C@@H]1O[C@H](COP(=O)(O)OP(=O)(O)OP(=O)(O)O)[C@@H](O)[C@H]1O` [ATP], the “ultraviolet crosslinking of [α-32P]ATP, SDS-PAGE, phosphorimaging” value is “at a level comparable to that of the structurally and functionally characterized EBP PspF”.
